Data on two compounds can be found in patent publication US20190201419A1, “COMPOUND AND METHOD FOR THE TREATMENT AND DIAGNOSIS OF NEURODEGENERATIVE CONDITIONS” (Swansea University, priority 2013, published 2019).

Common to all, as to type: in vivo
Series [1] relates to Islet-1. Put plainly: Islet-1 expression in Tg[Isl1:GFP] zebrafish embryos. To be noted: 10 μM.
For series [2], the system named is abca1. As to the kind of experiment: abca1 expression in zebrafish embryos. The settings on record: 10 μM. The protocol: Quantitative PCR, Total RNA was extracted from SN4741. cells and zebrafish treated with the compounds of interest using the RNeasy Mini Kit (Qiagen), 1 μg was treated with RQ1 RNase-free DNase (Promega) and reverse transcribed using SuperScript II Reverse Transcriptase (invitrogen) and random primers (invitrogen) (RT+reaction). Parallel reactions without reverse transcriptase enzyme were done as a control (RT−reaction), and Sybergreen real-time quantitative PCR assays were performed. Expression levels were obtained by normalization with the Value of the housekeeping gene encoding actin obtained for every sample in parallel assays.
Zebrafish Strain and Maintenance Zebrafish were raised on a 14/10 h day/night cycle and were kept at 28.5 ° C. Islet-1:GFP transgenic embryos were obtained via natural spawning and staged in hours or days post fertilization (hpf and dpt) according to Kimmel et al). Embryos older than 24 hpf were treated with 0.03% phenylthiourea (PTU) to inhibit pigmentation. […] Immunocytochemistry was performed using an anti-GFP antibody and fluorescence was viewed and photographed using a Zeiss Axioplan compound microscope and a Zeiss Axiocam digital camera.

Series [3] deals with zebrafish embryos. Put plainly: Survival of transgenic zebrafish embryos on compound exposure. The protocol:
Zebrafish Strain and Maintenance Zebrafish were raised on a 14/10 h day/night cycle and were kept at 28.5 ° C. Islet-1:GFP transgenic embryos were obtained via natural spawning and staged in hours or days post fertilization (hpf and dpt) according to Kimmel et al). Embryos older than 24 hpf were treated with 0.03% phenylthiourea (PTU) to inhibit pigmentation. MO injections were performed using splice site specific zebrafish lxi MO MO injected embryos were immediately dechorionated and transferred to a 96 well plate and exposed to dimethyl sulfoxide (DMSO) treated or ligand treated medium. Compound Exposure. Islet-1:GFP embryos were collected by natural mating and immediately (at 1 cell stage) dechorionated and transferred to a 96 well plate. Each of the compounds tested were obtained as 10 mM stock and diluted in embryo medium to a final concentration of 10 μM, and 200 μL was added to each well. DMSO or propan-2-ol treated embryo medium was taken as control. Ligand solutions were replaced every 12 h with fresh ligand solution prepared in PTU treated embryo medium. Embryos were collected at 48 hpf, fixed for 4 h at room temperature with 4% paraformaldehyde and then washed and kept in PBST. Immunocytochemistry was performed using an anti-GFP antibody and fluorescence was viewed and photographed using a Zeiss Axioplan compound microscope and a Zeiss Axiocam digital camera.

With `CC(CCC[C@@H](C)[C@H]1CC[C@H]2[C@@H]3[C@H](O)C=C4C[C@@H](O)CC[C@]4(C)[C@H]3CC[C@]12C)C(=O)O` (stereo partly drawn) [3β,7α-diHCA, 3β,7α-dihydroxycholest-5-en-26-oic acid], in series [1], the “Islet-1 mRNA and protein level (qPCR, western blot)” value is “accompanied by an increase in the level of Islet-1 mRNA and protein”. In series [1] (embryos 48 hpf), the Islet-GFP expression result is on record as “increased Islet-GFP expression” and the “Number of Islet1+ cells in cranial nerves (III, IV, V, VII, X)” value is given as “had no significant effect on the number of Islet1+cells”. Besides, the “Islet-GFP levels after lxr morpholino injection” value in series [1] (lxr MO vs control scrambled MO) is listed as “lxr MO injections abolished the in vivo increase in Islet-GFP levels”. For the same compound, in series [2], the abca1 expression entry is given as “enhanced expression of abca1”.
Take `CC(CCC[C@@H](C)[C@H]1CC[C@H]2[C@@H]3CC=C4C[C@@H](O)CC[C@]4(C)[C@H]3CC[C@]12C)C(=O)O` (stereo partly drawn) [3β-HCA, 3β-hydroxycholest-5-en-26-oic acid]: the “Toxic effect on survival of the fish” value in series [3] is on record as “had a deleterious toxic effect which impaired the survival of the fish”.
